Values joined by “and” are separate entries in the source; they are usually repeats but may differ in a detail not shown here. Equal values may be shown once. Read-outs that look alike come from different tables or passages of the source. Values belong to the compound of their own block, whether it stands above or below them.
What was measured:
[1] = in vivo
Protocol: (§1) During the initial clinic visit, study participants completed a medical history form and underwent a brief physical examination. A fasting blood was collected and subjected to a complete blood count with differential leukocyte count and a comprehensive blood chemistry analysis. Eligible subjects were randomly assigned to one of the Polyphenon E doses (400, 800, and 1200 mg, based on EGCG content) and were required to refrain from the ingestion of tea, apples, chocolate, and their products two weeks prior to the first pharmacokinetic study day and until the end of the second pharmacokinetic study day. The night prior to the first pharmacokinetic study day, subjects fasted after midnight except for water. At approximately either 6 am or 9 am on the morning of the first pharmacokinetic study day, each subject was randomly assigned to receive Polyphenon E at the assigned dose level with or without breakfast. Breakfast consisted of one or two 4-oz muffins.
(§2) Study participants had the option of selecting from three varieties of Otis Spunkmeyer® brand muffins: cheese streusel, wild blueberry, and banana nut flavors. The muffins contain 420 to 480 calories each, with 48-60 grams of carbohydrates, 20-24 grams of fat, and 6 grams of protein. Blood samples were collected prior to and at 0.5, 1, 2, 4, 6, 8, 10, and 24 hours after Polyphenon E administration. Urine samples were collected prior to and up to 24 hours (divided into two intervals: 0-8 and 8-24 hours post-dose) after dosing. Following a one-week wash-out period, study subjects fasted overnight and were crossed-over to receive the same dose of Polyphenon E under the other fasting/fed condition.
(§3) Blood samples were collected into Vacutainer tubes containing sodium heparin. Within 30 minutes of collection, tubes were centrifuged for 10 minutes at 2000 rpm. After centrifugation, plasma was mixed with Vc-EDTA solution (0.4 M NaH2PO4 buffer containing 20% ascorbic acid and 0.1% EDTA, pH 3.6) in the volume ratio of 1:0.02 and stored at −80° C. until sample analysis. Urine specimen container was preadded with 1.38 g NaH2PO4, 1 g ascorbic acid, and 5 mg EDTA to prevent degradation of tea catechins. Urine specimen was kept cold by storing the specimen container in a cooler chest with freezer packs during each collection period. The total volume of each urine sample was measured. An aliquot of urine sample was mixed with the Vc-EDTA solution and stored at −80° C. until sample analysis.
(§4) In brief, for determination of free green tea catechins, plasma or urine samples were extracted with ethyl acetate. The ethyl acetate layer was mixed with a small aliquot of 0.1% ascorbic acid before drying by vacuum centrifugation. The dried residue was re-dissolved in 15% acetonitrile and injected onto HPLC. For determination of the total of free and glucuronic acid/sulfate conjugates of tea catechins, plasma or urine samples were mixed with an aliquot of β-glucuronidase and sulfatase in the presence of ascorbate-EDTA solution. Following pre-treatment, the samples were extracted as described above for the free catechins.
(§5) The HPLC system consisted of an ESA Model 465 refrigerated autosampler, an ESA Model 580 two-pump solvent delivery system, an ESA 5500 coulochem electrode array system (CEAS), and a Supelcosil C18 reversed-phase column (150×4.6 mm; particle size, 5 μm; Supelco Inc., Bellefonte, Pa.). The autosampler and column temperatures were maintained at 6° C. and 35° C., respectively. This assay employed a gradient of two mobile phases. Buffer A consisted of 30 mM NaH2PO4 buffer, acetonitrile, and tetrahydrofuran in the volume ratio of 98.13:1.75:0.12 (pH 3.35). Buffer B consisted of 15 mM NaH2PO4 buffer, acetonitrile, and tetrahydrofuran in the volume ratio of 41.5:58.5:12.5 (pH 3.45). The flow rate was maintained at 1 ml/min. The column was eluted with 96% buffer A and 4% buffer B from 0 to 7 min.

[2] = Plasma total (free and conjugated) catechin Cmax after β-glucuronidase and sulfatase treatment; settings: for form mostly present in plasma: comparing total and free catechin Cmax
Protocol: as §1, §2, §3, §4, §5

[3] = Plasma free catechin pharmacokinetics after oral Polyphenon E, fasting/fed cross-over; type: in vivo, human; settings: for EGCG AUC / EGCG Cmax: oral Polyphenon E 1200 mg dose level
Protocol: Study Design. […] Breakfast consisted of one or two 4-oz muffins.
Sample Collection and Processing. […] The total volume of each urine sample was measured.
Tea Polyphenol Concentration Measurements.
This assay employed a gradient of two mobile phases. […] The flow rate was maintained at 1 ml/min.
The distribution of pharmacokinetic parameter data was normalized by logarithmic transformation prior to statistical analyses. The primary analyses were to determine whether the pharmacokinetics of tea catechins are different under fasting/fed states. Pharmacokinetic parameters such as AUC, Cmax, Tmax, half-life, CL/F, Vd/F, and total amount excreted over 24 hr between the fasting and fed conditions were compared by standard cross-over statistical analyses. The pkcross routine in Stata 8.0 (StataCorp 2003) was used. […] A p<0.05 was considered statistically significant. In secondary analysis, EGCG pharmacokinetic parameters such as CL/F, Vd/F, dose normalized AUC, and dose normalized Cmax were compared among different dose levels using one-way analysis of variance followed by post-hoc t-tests corrected for multiple comparisons. For the post-hoc t-test, a p<0.0167 was considered statistically significant.

[4] = Total catechin recovered in urine over 24 hours after oral Polyphenon E; type: in vivo, human; settings: following Polyphenon E administration
Protocol: Blood samples were collected prior to and at 0.5, 1, 2, 4, 6, 8, 10, and 24 hours after Polyphenon E administration. Urine samples were collected prior to and up to 24 hours (divided into two intervals: 0-8 and 8-24 hours post-dose) after dosing.
Sample Collection and Processing. Blood samples were collected into Vacutainer tubes containing sodium heparin. Within 30 minutes of collection, tubes were centrifuged for 10 minutes at 2000 rpm. After centrifugation, plasma was mixed with Vc-EDTA solution (0.4 M NaH2PO4 buffer containing 20% ascorbic acid and 0.1% EDTA, pH 3.6) in the volume ratio of 1:0.02 and stored at −80° C. until sample analysis. Urine specimen container was preadded with 1.38 g NaH2PO4, 1 g ascorbic acid, and 5 mg EDTA to prevent degradation of tea catechins. Urine specimen was kept cold by storing the specimen container in a cooler chest with freezer packs during each collection period. The total volume of each urine sample was measured. […]
The HPLC system consisted of an ESA Model 465 refrigerated autosampler, an ESA Model 580 two-pump solvent delivery system, an ESA 5500 coulochem electrode array system (CEAS), and a Supelcosil C18 reversed-phase column (150×4.6 mm; particle size, 5 μm; Supelco Inc., Bellefonte, Pa.). […] The eluent was monitored by the CEAS with potential settings at −10, 150, 300, and 500 mV. […]

[5] = rats; cited from earlier work
[6] = mice; cited from earlier work
[7] = oral Polyphenon E (400 mg EGCG), Fasting
[8] = oral Polyphenon E (400 mg EGCG), Fed
[9] = oral Polyphenon E (800 mg EGCG), Fasting
[10] = oral Polyphenon E (800 mg EGCG), Fed
[11] = oral Polyphenon E (1200 mg EGCG), Fasting
[12] = oral Polyphenon E (1200 mg EGCG), Fed
[13] = oral Polyphenon E 200 mg (so in the source), Fasting
[14] = oral Polyphenon E 200 mg (so in the source), Fed
[15] = oral Polyphenon E 400 mg, Fasting
[16] = oral Polyphenon E 800 mg, Fasting

Structure (SMILES): Oc1cc(O)c2c(c1)O[C@H](c1cc(O)c(O)c(O)c1)[C@H](O)C2 [EGC, epigallocatechin]
form mostly present in plasma [1]: conjugated forms

form mostly present in plasma [2]: conjugated forms
free catechin levels in plasma samples ([3]; after oral Polyphenon E): very low or undetectable
Maximum plasma free catechin concentrations [3, 7]: 5.6 ± 7.8 ng/mL
Maximum plasma free catechin concentrations [3, 8]: 1.6 ± 3.9 ng/mL
Maximum plasma free catechin concentrations [3, 9]: 1.92 ± 3.4 ng/mL
Maximum plasma free catechin concentrations [3, 10]: 2.8 ± 5.0 ng/mL
Maximum plasma free catechin concentrations [3, 11]: 16.6 ± 30.0 ng/mL
Maximum plasma free catechin concentrations [3, 12]: 10.1 ± 15.3 ng/mL
Structure (SMILES): Oc1cc(O)c2c(c1)O[C@H](c1ccc(O)c(O)c1)[C@H](O)C2 [EC, epicatechin]

urinary total catechin levels [4]: very low or undetectable
form mostly present in plasma [2]: free form
Maximum plasma free catechin concentrations [3, 7]: 87.6 ± 62 ng/mL
Maximum plasma free catechin concentrations [3, 8]: 15.7 ± 8.8 ng/mL
Maximum plasma free catechin concentrations [3, 9]: 174 ± 141 ng/mL
Maximum plasma free catechin concentrations [3, 10]: 33.9 ± 11.0 ng/mL
Maximum plasma free catechin concentrations [3, 11]: 383 ± 176 ng/mL
Maximum plasma free catechin concentrations [3, 12]: 112.9 ± 88.2 ng/mL
Structure (SMILES): O=C(O[C@@H]1Cc2c(O)cc(O)cc2O[C@@H]1c1ccc(O)c(O)c1)c1cc(O)c(O)c(O)c1 [ECG, epicatechin gallate]

urinary total catechin levels [4]: very low or undetectable
form mostly present in plasma [2]: free form
Maximum plasma total catechin concentrations [2, 7]: 754.9 ± 399.9^3 ng/ml
Maximum plasma total catechin concentrations [2, 8]: 174.4 ± 80.6 ng/mL
Maximum plasma total catechin concentrations [2, 9]: 1622.7 ± 1501.4^3 ng/ml
Maximum plasma total catechin concentrations [2, 10]: 360.1 ± 136.9 ng/mL
Maximum plasma total catechin concentrations [2, 11]: 3988.4 ± 2068.2^3 ng/ml
Maximum plasma total catechin concentrations [2, 12]: 871.9 ± 625.3 ng/mL
AUC of free EGCG [3, 13]: 685.53 ± 394.33^2 min · μg/ml
CL/F of free EGCG [3, 13]: 2.37 ± 1.32^2 L/min
Cmax of free EGCG [3, 13]: 3371.6 ± 1651.2^2 ng/ml
Tmax of free EGCG [3, 13]: 90.60 ± 28.37^3 min
t1/2 of free EGCG [3, 13]: 228.4 ± 75.3 min
AUC of free EGCG [3, 14]: 299.40 ± 285.86^2 min · μg/ml
CL/F of free EGCG [3, 14]: 7.39 ± 4.86 L/min
Cmax of free EGCG [3, 14]: 923.6 ± 755.3 ng/mL
Tmax of free EGCG [3, 14]: 175.10 ± 74.58 min
t1/2 of free EGCG [3, 14]: 254.9 ± 59.9^4 min
CL/F of free EGCG [3, 15]: 3.64 ± 1.55^2 L/min
Tmax of free EGCG [3, 15]: 93.90 ± 58.99^3 min
t1/2 of free EGCG [3, 15]: 170.5 ± 104.6 min
CL/F of free EGCG ([3]; oral Polyphenon E 400 mg, Fed): 14.53 ± 7.84 L/min
Cmax of free EGCG ([3]; oral Polyphenon E 400 mg, Fed): 141.8 ± 89.1 ng/mL
Tmax of free EGCG ([3]; oral Polyphenon E 400 mg, Fed): 122.90 ± 83.70 min
t1/2 of free EGCG ([3]; oral Polyphenon E 400 mg, Fed): 145.2 ± 129.1 min
CL/F of free EGCG [3, 16]: 4.80 ± 2.69^2 L/min
Tmax of free EGCG [3, 16]: 83.30 ± 31.04^3 min
t1/2 of free EGCG [3, 16]: 156.5 ± 77.5 min
AUC of free EGCG ([3]; oral Polyphenon E 800 mg, Fed): 90.89 ± 37.39 µg·min/mL
CL/F of free EGCG ([3]; oral Polyphenon E 800 mg, Fed): 11.63 ± 9.25 L/min
Cmax of free EGCG ([3]; oral Polyphenon E 800 mg, Fed): 294.0 ± 113.5 ng/mL
Tmax of free EGCG ([3]; oral Polyphenon E 800 mg, Fed): 154.90 ± 78.31 min
t1/2 of free EGCG ([3]; oral Polyphenon E 800 mg, Fed): 220.9 ± 209.3 min
EGCG AUC ([3]; with food): 299.40 ± 285.86 µg·min/mL
EGCG Cmax ([3]; with food): 923.6 ± 755.3 ng/mL
EGCG AUC ([3]; without food): 685.53 ± 394.33 µg·min/mL
EGCG Cmax ([3]; without food): 3371.6 ± 1651.2 ng/mL
Maximum plasma free catechin concentrations [3, 7]: 799 ± 573 ng/mL
Maximum plasma free catechin concentrations [3, 8]: 141.8 ± 89.1 ng/mL
Maximum plasma free catechin concentrations [3, 9]: 1522.4 ± 1357.8^3 ng/ml
Maximum plasma free catechin concentrations [3, 10]: 294.0 ± 113.5 ng/mL
Maximum plasma free catechin concentrations [3, 11]: 3371.6 ± 1651.2^3 ng/ml
Maximum plasma free catechin concentrations [3, 12]: 923.6 ± 755.3 ng/mL
Structure (SMILES): O=C(O[C@@H]1Cc2c(O)cc(O)cc2O[C@@H]1c1cc(O)c(O)c(O)c1)c1cc(O)c(O)c(O)c1 [EGCG, epigallocatechin gallate]
oral dose available in the systemic blood [5]: less than 2%
oral bioavailability [6]: < 13%
AUC of free EGCG [3, 15]: 126.96±47.02 min · μg/ml and 126.96 ± 47.02^2 min · μg/ml
Cmax of free EGCG [3, 15]: 798.7±573.1 ng/ml and 798.7 ± 573.1^2 ng/ml
AUC of free EGCG ([3]; oral Polyphenon E 400 mg, Fed): 36.70±24.66 min · μg/ml and 36.70 ± 24.66^1 min · μg/ml
AUC of free EGCG [3, 16]: 254.48±214.21 min · μg/ml and 254.48 ± 214.21^2 min · μg/ml
Cmax of free EGCG [3, 16]: 1522.4±1357.8 ng/ml and 1522.4 ± 1357.8^2 ng/ml

Source: patent US20060057230A1, “Tea polyphenols bioavailability enhancement method” (priority 2004, published 2006)
